{"source": "paper doi:10.1101/2025.11.19.689330v1", "about": "(bioRxiv, 2025)", "type_in_all_cases": "cell-based, human", "key": {"Golgi of HeLa cells [1]": {"test_system": "Golgi of HeLa cells", "assay": "BFA-induced Golgi disassembly in cells prelabeled with 2", "details": "HeLa cells prelabeled with 2 (10 nM, 30 min), BFA 10 μM"}, "Golgi of HeLa cells [2]": {"test_system": "Golgi of HeLa cells", "assay": "CLSM Golgi labeling at ultralow concentrations", "details": "4 hours"}, "Golgi of HeLa cells [3]": {"test_system": "Golgi of HeLa cells", "assay": "Time-lapse CLSM of Golgi fluorescence build-up", "details": "over 24 minutes"}, "Golgi of HeLa cells [4]": {"test_system": "Golgi of HeLa cells", "assay": "FRAP assay at the Golgi", "details": "500 nM, after 30-minute treatment"}, "Golgi of HeLa cells [5]": {"test_system": "Golgi of HeLa cells", "assay": "FRET co-assembly of 2 with quencher 7, Golgi fluorescence over 24 minutes", "details": "2 (10 nM) with 7 (5, 10, 20 nM) or UBQ2-COOH (10, 20 nM)"}}, "data": [{"smiles": "C[C@H]1CCC/C=C/[C@@H]2C[C@H](O)C[C@H]2[C@H](O)/C=C/C(=O)O1", "note": "[BFA, brefeldin A]", "values": [{"measurement": "time at which the Golgi begins to lose its defined morphology", "setting": "Golgi of HeLa cells [1]", "result": 5.5, "unit": "minutes"}, {"measurement": "time at which the Golgi collapses into the ER", "setting": "Golgi of HeLa cells [1]", "result": 6.5, "unit": "min"}]}, {"smiles": "CCCCCCCCCCCCC/C=C/[C@@H](O)[C@H](CO)NC(=O)CCCCC1=[N+]2C(=Cc3c(C)cc(C)n3[B-]2(F)F)C=C1", "note": "[BODIPY-C5-Ceramide]", "values": [{"measurement": "Golgi fluorescence at 10 nM", "setting": "Golgi of HeLa cells [2]; 10 nM", "result": "very dim fluorescence at the Golgi"}, {"measurement": "Golgi localization at picomolar concentrations", "setting": "Golgi of HeLa cells [2]; picomolar concentrations (500 pM)", "result": "no detectable Golgi localization"}, {"measurement": "Golgi fluorescence in time-lapse imaging at 10 nM", "setting": "Golgi of HeLa cells [3]", "result": "no significant Golgi fluorescence"}, {"measurement": "immobile fraction (IMf) at the Golgi", "setting": "Golgi of HeLa cells [4]", "result": 0.52}]}, {"smiles": "COc1cc(N=Nc2ccc([N+](=O)[O-])cc2)c(OC)cc1N=Nc1ccc(N(C)CCCC(=O)O)cc1", "note": "[UBQ2]", "values": [{"measurement": "effect on Golgi fluorescence of 2 on co-treatment", "setting": "Golgi of HeLa cells [5]", "result": "did not diminish Golgi fluorescence"}]}]}
